Test results reported in patent publication US5679701A (priority 1996, dated 1997).
“Also recorded” adds a separate entry of the source. Where two headings read alike, the source gives them in different places.

Legend:
[1] = target: T1, ryanodine receptor (skeletal sarcoplasmic reticulum membrane vesicles) (Oryctolagus cuniculus, UniProt P11716); assay: biochemical; assay type: binding; details: first embodiment
T1 construct: skeletal sarcoplasmic reticulum membrane vesicles; from tissue; host or cells: skeletal muscle sarcoplasmic reticulum membrane vesicles

[2] = target: T2, Sarcoplasmic Reticular Ca^++ -Release Channel (ryanodine receptor) (Oryctolagus cuniculus, UniProt P11716); details: Table II; footnote * J. MED. CHEM. 30 710 (1987); cited from earlier work
T2 construct: skeletal sarcoplasmic reticulum membrane vesicles; from tissue; host or cells: skeletal muscle sarcoplasmic reticulum membrane vesicles

[3] = target: SR Ca^2+ release channel (junctional SR vesicles from rabbit skeletal muscle) (Oryctolagus cuniculus, UniProt P11716); assay: biochemical; assay type: biochemical
Experimental: Briefly, junctional SR vesicles from rabbit skeletal muscle were passively loaded with. ^45 Ca^2+ in the presence and absence of the esters. Ca^2+ -efflux was then initiated by diluting the vesicles 100-fold into a low Ca^2+ -concentration. ^45 Ca^2+ remaining in the vesicles was determined after a 3 sec. efflux period by termination and filtration of the vesicles followed by liquid scintillation counting.

[4] = system: SR Ca^++ release channel/ryanodine receptor (cardiac and skeletal muscle vesicles); assay type: biochemical; details: ryanodine; for opening of the SR Ca^++ release channel (in words): dehydroryanodine: low concentrations (<μM)
[5] = system: mammalian skeletal muscle; details: cited from earlier work
mammalian cardiac muscle = details: cited from earlier work
[6] = system: skeletal muscle sarcoplasmic reticulum (SR); details: cited from earlier work
[7] = 45Ca2+ efflux, skeletal SR vesicles

Sequence of SR Ca^2+ release channel (junctional SR vesicles from rabbit skeletal muscle) (P11716 whole entry): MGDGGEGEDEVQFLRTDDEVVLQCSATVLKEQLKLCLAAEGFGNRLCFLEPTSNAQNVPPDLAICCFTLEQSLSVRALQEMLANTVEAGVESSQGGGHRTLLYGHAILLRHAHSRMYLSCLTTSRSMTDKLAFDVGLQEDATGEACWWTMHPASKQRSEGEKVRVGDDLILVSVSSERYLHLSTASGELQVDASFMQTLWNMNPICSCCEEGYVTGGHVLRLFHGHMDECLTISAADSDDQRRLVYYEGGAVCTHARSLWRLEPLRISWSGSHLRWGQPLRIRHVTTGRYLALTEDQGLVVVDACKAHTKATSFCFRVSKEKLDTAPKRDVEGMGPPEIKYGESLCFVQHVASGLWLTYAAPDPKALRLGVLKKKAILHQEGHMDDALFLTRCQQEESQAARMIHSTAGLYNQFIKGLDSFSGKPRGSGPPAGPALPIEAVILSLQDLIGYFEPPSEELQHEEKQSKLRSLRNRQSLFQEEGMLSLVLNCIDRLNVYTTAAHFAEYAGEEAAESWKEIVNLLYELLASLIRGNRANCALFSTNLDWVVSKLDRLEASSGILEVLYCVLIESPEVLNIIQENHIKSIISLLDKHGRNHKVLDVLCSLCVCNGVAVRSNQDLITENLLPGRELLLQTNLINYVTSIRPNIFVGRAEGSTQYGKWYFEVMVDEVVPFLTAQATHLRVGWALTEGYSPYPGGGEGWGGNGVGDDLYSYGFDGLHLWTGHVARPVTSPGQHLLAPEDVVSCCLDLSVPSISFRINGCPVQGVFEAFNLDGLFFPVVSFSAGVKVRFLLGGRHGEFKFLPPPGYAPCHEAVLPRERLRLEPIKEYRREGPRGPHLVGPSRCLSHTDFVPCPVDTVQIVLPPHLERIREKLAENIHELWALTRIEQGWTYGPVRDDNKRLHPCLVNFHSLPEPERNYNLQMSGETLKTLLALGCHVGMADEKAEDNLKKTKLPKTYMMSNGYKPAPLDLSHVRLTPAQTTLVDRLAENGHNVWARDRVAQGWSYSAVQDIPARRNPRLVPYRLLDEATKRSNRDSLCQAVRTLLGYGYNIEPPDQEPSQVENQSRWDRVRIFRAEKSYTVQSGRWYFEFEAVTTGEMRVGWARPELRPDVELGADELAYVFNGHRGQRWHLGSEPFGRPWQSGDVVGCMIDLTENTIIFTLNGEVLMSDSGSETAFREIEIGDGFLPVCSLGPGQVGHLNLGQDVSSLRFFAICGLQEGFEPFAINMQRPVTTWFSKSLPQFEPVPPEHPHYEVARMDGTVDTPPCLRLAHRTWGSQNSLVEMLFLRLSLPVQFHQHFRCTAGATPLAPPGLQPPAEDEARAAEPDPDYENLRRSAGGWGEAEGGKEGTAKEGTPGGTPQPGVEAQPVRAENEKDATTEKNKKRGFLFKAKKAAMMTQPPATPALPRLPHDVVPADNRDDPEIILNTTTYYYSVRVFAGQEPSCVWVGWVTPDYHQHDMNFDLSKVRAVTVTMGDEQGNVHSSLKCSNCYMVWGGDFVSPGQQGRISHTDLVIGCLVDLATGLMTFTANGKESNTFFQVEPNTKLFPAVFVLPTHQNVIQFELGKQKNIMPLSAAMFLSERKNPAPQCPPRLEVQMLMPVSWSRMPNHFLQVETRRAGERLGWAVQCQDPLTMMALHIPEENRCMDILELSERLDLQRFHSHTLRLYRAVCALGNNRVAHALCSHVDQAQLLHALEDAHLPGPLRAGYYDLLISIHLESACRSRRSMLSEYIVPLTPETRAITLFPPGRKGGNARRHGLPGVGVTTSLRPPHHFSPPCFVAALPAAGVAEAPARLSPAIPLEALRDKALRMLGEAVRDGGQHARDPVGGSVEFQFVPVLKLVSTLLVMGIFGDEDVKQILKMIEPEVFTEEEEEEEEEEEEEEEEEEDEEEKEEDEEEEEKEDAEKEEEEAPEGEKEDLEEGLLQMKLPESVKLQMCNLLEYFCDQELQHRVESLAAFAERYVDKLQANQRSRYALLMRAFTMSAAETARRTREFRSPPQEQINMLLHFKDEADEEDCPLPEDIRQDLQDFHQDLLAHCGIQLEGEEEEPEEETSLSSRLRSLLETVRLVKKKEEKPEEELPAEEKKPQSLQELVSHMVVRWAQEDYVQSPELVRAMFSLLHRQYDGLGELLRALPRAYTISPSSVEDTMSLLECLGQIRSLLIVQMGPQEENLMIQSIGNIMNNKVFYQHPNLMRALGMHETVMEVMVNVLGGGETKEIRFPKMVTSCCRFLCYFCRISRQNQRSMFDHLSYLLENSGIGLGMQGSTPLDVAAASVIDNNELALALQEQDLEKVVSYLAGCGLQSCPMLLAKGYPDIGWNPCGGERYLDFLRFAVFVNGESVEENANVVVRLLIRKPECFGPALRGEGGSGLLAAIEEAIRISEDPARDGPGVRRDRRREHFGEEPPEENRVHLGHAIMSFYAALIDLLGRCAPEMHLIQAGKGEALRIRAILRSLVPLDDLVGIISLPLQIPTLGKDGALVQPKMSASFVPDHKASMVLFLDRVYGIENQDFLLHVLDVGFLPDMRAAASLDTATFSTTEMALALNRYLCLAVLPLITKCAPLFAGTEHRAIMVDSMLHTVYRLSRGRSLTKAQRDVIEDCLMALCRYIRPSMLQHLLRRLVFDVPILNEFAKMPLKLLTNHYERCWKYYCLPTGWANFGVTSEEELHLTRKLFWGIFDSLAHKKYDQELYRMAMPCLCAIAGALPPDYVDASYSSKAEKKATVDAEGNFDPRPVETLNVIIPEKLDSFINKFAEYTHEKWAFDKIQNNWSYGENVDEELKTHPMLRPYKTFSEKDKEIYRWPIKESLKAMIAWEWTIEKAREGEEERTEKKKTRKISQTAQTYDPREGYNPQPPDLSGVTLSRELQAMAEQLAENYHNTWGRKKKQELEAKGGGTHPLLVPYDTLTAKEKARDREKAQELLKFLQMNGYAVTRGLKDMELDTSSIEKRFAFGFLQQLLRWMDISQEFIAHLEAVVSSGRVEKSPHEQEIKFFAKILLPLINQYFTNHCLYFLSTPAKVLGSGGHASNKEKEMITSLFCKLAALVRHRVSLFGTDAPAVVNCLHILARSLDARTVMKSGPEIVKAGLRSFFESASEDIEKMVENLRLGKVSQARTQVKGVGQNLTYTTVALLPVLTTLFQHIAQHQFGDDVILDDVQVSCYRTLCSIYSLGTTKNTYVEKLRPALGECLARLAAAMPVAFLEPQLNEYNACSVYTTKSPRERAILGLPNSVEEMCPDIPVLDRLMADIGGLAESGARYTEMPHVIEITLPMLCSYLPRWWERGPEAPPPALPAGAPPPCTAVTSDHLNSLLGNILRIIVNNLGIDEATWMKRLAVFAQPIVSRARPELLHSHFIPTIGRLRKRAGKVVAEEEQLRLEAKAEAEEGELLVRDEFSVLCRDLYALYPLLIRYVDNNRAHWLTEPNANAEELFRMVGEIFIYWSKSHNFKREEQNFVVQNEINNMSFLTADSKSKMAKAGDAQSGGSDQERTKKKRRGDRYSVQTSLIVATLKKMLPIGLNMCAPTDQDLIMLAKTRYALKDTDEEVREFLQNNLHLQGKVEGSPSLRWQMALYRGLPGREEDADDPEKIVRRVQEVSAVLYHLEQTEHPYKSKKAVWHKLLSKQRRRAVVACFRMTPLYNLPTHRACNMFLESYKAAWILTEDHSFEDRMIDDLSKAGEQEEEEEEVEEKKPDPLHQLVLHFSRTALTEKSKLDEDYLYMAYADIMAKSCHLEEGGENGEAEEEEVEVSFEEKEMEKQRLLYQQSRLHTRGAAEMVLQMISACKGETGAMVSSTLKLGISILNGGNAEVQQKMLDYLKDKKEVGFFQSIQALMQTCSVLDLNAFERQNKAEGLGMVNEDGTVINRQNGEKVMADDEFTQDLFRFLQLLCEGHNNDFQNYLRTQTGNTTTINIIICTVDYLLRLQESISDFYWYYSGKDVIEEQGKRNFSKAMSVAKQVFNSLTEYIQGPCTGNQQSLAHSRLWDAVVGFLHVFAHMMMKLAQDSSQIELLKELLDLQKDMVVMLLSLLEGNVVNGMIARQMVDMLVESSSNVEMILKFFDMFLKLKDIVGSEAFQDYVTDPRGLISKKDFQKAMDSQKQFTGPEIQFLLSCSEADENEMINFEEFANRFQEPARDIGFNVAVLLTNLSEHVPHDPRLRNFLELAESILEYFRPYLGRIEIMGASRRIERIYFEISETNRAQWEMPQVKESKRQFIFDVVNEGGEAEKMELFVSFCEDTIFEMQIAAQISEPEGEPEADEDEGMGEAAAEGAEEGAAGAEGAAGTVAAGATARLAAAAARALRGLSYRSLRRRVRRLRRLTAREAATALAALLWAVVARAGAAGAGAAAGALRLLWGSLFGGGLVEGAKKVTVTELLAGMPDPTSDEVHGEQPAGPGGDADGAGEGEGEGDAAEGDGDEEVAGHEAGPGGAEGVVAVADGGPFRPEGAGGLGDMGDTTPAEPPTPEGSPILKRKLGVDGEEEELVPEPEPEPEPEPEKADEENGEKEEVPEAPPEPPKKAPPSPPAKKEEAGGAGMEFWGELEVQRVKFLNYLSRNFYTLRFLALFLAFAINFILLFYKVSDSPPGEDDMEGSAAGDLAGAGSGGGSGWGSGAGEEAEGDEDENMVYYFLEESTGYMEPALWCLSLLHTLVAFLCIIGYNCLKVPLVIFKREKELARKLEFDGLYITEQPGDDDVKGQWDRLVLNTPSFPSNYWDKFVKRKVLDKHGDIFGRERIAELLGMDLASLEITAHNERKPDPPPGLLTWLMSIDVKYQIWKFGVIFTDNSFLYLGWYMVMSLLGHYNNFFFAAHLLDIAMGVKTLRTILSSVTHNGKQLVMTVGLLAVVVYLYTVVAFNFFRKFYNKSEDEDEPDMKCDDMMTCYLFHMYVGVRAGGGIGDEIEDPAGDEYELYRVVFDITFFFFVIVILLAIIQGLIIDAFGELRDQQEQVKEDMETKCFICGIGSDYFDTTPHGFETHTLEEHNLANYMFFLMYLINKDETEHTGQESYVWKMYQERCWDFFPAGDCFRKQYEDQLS
T1 sequence (P11716 whole entry): as above
T2 sequence (P11716 whole entry): as above

Row | Compound | IC50 ([1]; read-out: IC50) | Kd ([1]; read-out: KD) | IC50 [2] | opening (activation) of the SR CRC (in words) [3] | concentration inducing deactivation of the channel [3, 7] | concentration of maximal channel activation [3, 7] | closing of the SR Ca^++ release channel (in words) ([4]; I, NMDS: concentrations as high as 300 μM, dehydroryanodine: >μM) | opening of the SR Ca^++ release channel (in words) [4] | opening of the SR Ca^++ release channel (in words) ([4]; listed as ryanodine) | effect on mammalian skeletal muscle (in words) [5] | effect on mammalian cardiac muscle (in words) (mammalian cardiac muscle) | effect on active uptake of Ca^++ by skeletal muscle SR (in words) [6]
1 | CC1=C(C(C)C)[C@@H](OC(=O)c2ccc[nH]2)[C@@]2(O)[C@@]3(C)CC(=O)O[C@@]4([C@H](O)[C@@H](C)CC[C@]34O)[C@@]12O [Anhydro-Ryanodine, reference compound] | > 1000 nM | > 350 nM | > 1000 nM |  |  |  |  |  |  |  |  | 
2 | CC1CCC2(O)C3(C)CC4(O)OC2(C1O)C1(O)C3(O)C(OC(=O)c2ccc[nH]2)C(O)(C(C)C)C41C (stereo not drawn) [Ryanodine, ryanodine] |  |  |  | activates the SR CRC at low μM concentrations; also recorded: induces full opening of the SR CRC | higher than 30 μM | about 30 μM | closes or inactivates the SR Ca^++ release channels; also recorded: inhibits Ca^++ flux by inactivating or closing the channel; also recorded: the channel is closed | opens the SR Ca^++ release channel/ryanodine receptor | enhances Ca^++ flux across the SR membrane by opening the SR Ca^++ release channel; also recorded: the Ca^++ release channel is opened | irreversible contracture | negative inotropic effect | obstruct active uptake
